Test system: Ba/F3 ETV6-NTRK3-G696C cells
Assay: Proliferation of Ba/F3 ETV6-NTRK3-G696C cells (CellTiter-Glo)
Assay type: cell-based, mouse
Settings: Mus musculus, BaF3, 72 h, Table 7; 72 hours; read-out: Ba/F3 ETV6-NTRK3-G696C, IC50
Excerpt: Ba/F3 ETV6-NTRK3-G696C is a stable transgenic cell line constructed by KYinno Biotechnology Co., Ltd. on mouse primary B cell Ba/F3 wherein NTRK3 is highly expressed with a mutation of G at position […] to C and fused with ETV6 to form ETV6-NTRK3. • [Test method]: Promega's CellTiter-Glo® Luminescent Cell Viability Assay kit was used to evaluate the inhibitory activity of the compounds on the proliferation of Ba/F3 ETV6-NTRK3-G696C cells. • [Instrument]: Spectramax M3 multifunctional microplate reader from Molecular Devices. • [Test materials]: Ba/F3 ETV6-NTRK3-G696C cell line (constructed by KYinno Biotechnology Co., Ltd. (Beijing)), 96-well transparent flat-bottomed black-walled cell culture plate (Corning, cat #3603), RPMI-1640 media (GE, product number #SH30027.01), fetal bovine serum FBS (Thermo Fisher, cat #10099-141), CellTiter-Glo® Luminescent Cell Viability Assay kit (Promega, cat #G7572), PBS (Solarbio, cat #P1020), DMSO (Sigma, cat #D2650). • [Experimental procedure]: When resuscitating Ba/F3 ETV6-NTRK3-G696C cells, • the freezing tube was quickly shaken in a 37° C. water bath to melt within 1 minute. The thawed cell suspension was mixed uniformly with RPMI1640 medium containing 10% FBS, centrifuged at 1000 rpm for 5 minutes, and the supernatant discarded. 5 mL of complete medium (RPMI1640 medium with 10% FBS) was taken to resuspend the cell pellets, charged into a cell culture flask with a bottom area of 25 cm^2, and incubated in a cell incubator at 37° C., 95% humidity and 5% CO2. Cells were allowed to passage when the number of cells reached about 10^6 cells/mL. For cell passage, the old cell suspension was directly pipetted evenly, 1/5 of the cell suspension was kept, 4 mL of new complete medium was added, after pipetting evenly, the cell flask was placed in the cell incubator for further culturing. Cell plating was performed when the number of cells reached about 10^6 cells/mL again. For cell plating, 1/5 of the cell suspension was kept for further culturing as in the cell passage method, and the remaining 4/5 of the cell suspension was placed in a 15 mL centrifuge tube, detected for cell viability by Trypan blue exclusion method to ensure that cell viability was above 90%. A cell suspension with a density of 5.56×10^4 viable cells/mL was prepared with complete medium, and 90 μL of such cell suspension was added to a 96-well cell culture plate to obtain the cell density of 5000 viable cells/mL in the cell culture plate. A control group containing no cells, no compound and only complete medium (i.e. culture medium control) and a control group containing no compound but containing cells (i.e. cell control) were set. The cell plate was placed in a cell incubator overnight. The 10 mM compound stock solution in DMSO was first serially diluted with DMSO at a dilution factor of 3.16 times, to obtain 9 concentrations, and the 10th concentration was set as DMSO control without compound. Then, PBS was used to dilute the DMSO solutions of compounds of different concentrations, at a dilution factor of 100 times, so that the DMSO concentration in the compound solution of each concentration was 1%. Finally, 10 μL of each of the above solutions was added to the corresponding cell culture plate, so that the initial compound concentration was 10 μM, with the remaining concentrations being successively diluted at a dilution factor of 3.16 times, and the DMSO content in the cell culture plate was 0.1%. The cell plate was placed in a cell incubator and cultured for 72 hours. For endpoint detection, the CellTiter-Glo reagent was melted, and the cell plate was moved to room temperature to equilibrate for 30 minutes, added with 100 μL of CellTiter-Glo for each well, and shaken on an orbital shaker for 5 minutes to fully lyse the cells. […]

Row | IC50 | SMILES
1 | 20 nM | Cn1ncc2cc(Oc3ccc(NC(=O)c4ccc(C5CC5)n(-c5ccc(F)cc5)c4=O)cc3F)c(-c3cn[nH]c3)cc21 [Example 2, N-(3-fluoro-4-(1-methyl-6-(1H-pyrazol-4-yl)-1H-indazol-5-yloxy)phenyl)-1-(4-fluorophenyl)-6-cyclopropyl-2-oxo-1,2-dihydmpyridine-3-carboxamide]
2 | 10 nM | Cc1ccc(C(=O)Nc2ccc(Oc3cc4cnn(C)c4cc3-c3cn[nH]c3)c(F)c2)c(=O)n1-c1ccc(F)cc1 [Merestinib, reference compound]
3 | 34 nM | Cc1ccc(C(=O)Nc2ccc(Oc3cc4cnn(C(C)C)c4cc3-c3cn[nH]c3)c(F)c2)c(=O)n1-c1ccc(F)cc1 [Example 4, N-(3-fluoro-4-(1-isopropyl-6-(1H-pyrazol-4-yl)-1H-indazol-5-yloxy)phenyl)-1-(4-fluorophenyl)-6-methyl-2-oxo-1,2-dihydmpyridine-3-carboxamide]
4 | 18 nM | CCn1ncc2cc(Oc3ccc(NC(=O)c4ccc(C)n(-c5ccc(F)cc5)c4=O)cc3F)c(-c3cn[nH]c3)cc21 [Example 3, N-(3-fluoro-4-(1-ethyl-6-(1H-pyrazol-4-yl)-1H-indazol-5-yloxy)phenyl)-1-(4-fluorophenyl)-6-methyl-2-oxo-1,2-dihydmpyridine-3-carboxamide]
5 | 33 nM | Cn1ncc2cc(Oc3ccc(NC(=O)c4ccc(C(F)(F)F)n(-c5ccc(F)cc5)c4=O)cc3F)c(-c3cn[nH]c3)cc21 [Example 1, N-(3-fluoro-4-(1-methyl-6-(1H-pyrazol-4-yl)-1H-indazol-5-yloxy)phenyl)-1-(4-fluorophenyl)-6-trifluoromethyl-2-oxo-1,2-dihydmpyridine-3-carboxamide monomethanesulfonate]
6 | 16 nM | CC(C)c1ccc(C(=O)Nc2ccc(Oc3cc4cnn(C)c4cc3-c3cn[nH]c3)c(F)c2)c(=O)n1-c1ccc(F)cc1 [Example 6, N-(3-fluoro-4-(1-methyl-6-(1H-pyrazol-4-yl)-1H-indazol-5-yloxy)phenyl)-1-(4-fluorophenyl)-6-isopropyl-2-oxo-1,2-dihydropyridine-3-carboxamide]
7 | 6.8 nM | CCc1ccc(C(=O)Nc2ccc(Oc3cc4cnn(C)c4cc3-c3cn[nH]c3)c(F)c2)c(=O)n1-c1ccc(F)cc1 [Example 5, N-(3-fluoro-4-(1-methyl-6-(1H-pyrazol-4-yl)-1H-indazol-5-yloxy)phenyl)-1-(4-fluorophenyl)-6-ethyl-2-oxo-1,2-dihydropyridine-3-carboxamide]

Same assay, conditions: Mus musculus, BaF3, Table 7-1; separate test; read-out: Ba/F3 ETV6-NTRK3-G696C, IC50

Row | IC50 | SMILES
8 | 3 nM | COc1ccc(C(=O)Nc2ccc(Oc3cc4cnn(C)c4cc3-c3cn[nH]c3)c(F)c2)c(=O)n1-c1ccc(F)cc1 [Example 12, N-(3-fluoro-4-(1-methyl-6-(1H-pyrazol-4-yl)-1H-indazol-5-yloxy)phenyl)-1-(4-fluorophenyl)-6-methoxy-2-oxo-1,2-dihydropyridine-3-carboxamide]
9 | 13 nM | Cc1ccc(C(=O)Nc2ccc(Oc3cc4cnn(C)c4cc3-c3cn[nH]c3)c(F)c2)c(=O)n1-c1ccc(F)cc1 [Merestinib, reference compound]
10 | 11 nM | CCn1ncc2cc(Oc3ccc(NC(=O)c4ccc(OC)n(-c5ccc(F)cc5)c4=O)cc3F)c(-c3cn[nH]c3)cc21 [Example 23, N-(3-fluoro-4-(1-ethyl-6-(1H-pyrazol-4-yl)-1H-indazol-5-yloxy)phenyl)-1-(4-fluorophenyl)-6-methoxy-2-oxo-1,2-dihydropyridine-3-carboxamide]
11 | 12 nM | CCc1ccc(C(=O)Nc2ccc(Oc3cc4cnn(CC)c4cc3-c3cn[nH]c3)c(F)c2)c(=O)n1-c1ccc(F)cc1 [Example 18, N-(3-fluoro-4-(1-ethyl-6-(1H-pyrazol-4-yl)-1H-indazol-5-yloxy)phenyl)-1-(4-fluorophenyl)-6-ethyl-2-oxo-1,2-dihydropyridine-3-carboxamide]

Same assay, conditions: Mus musculus, BaF3, Table 7-2; separate test; read-out: Ba/F3 ETV6-NTRK3-G696C, IC50

Row | IC50 | SMILES
12 | 1.7 nM | Cc1ccc(C(=O)Nc2ccc(Oc3cc4cnn(C)c4cc3-c3cn[nH]c3)c(F)c2)c(=O)n1-c1ccc(F)cc1 [Merestinib, reference compound]
13 | 1.2 nM | CC(C)Oc1ccc(C(=O)Nc2ccc(Oc3cc4cnn(C)c4cc3-c3cn[nH]c3)c(F)c2)c(=O)n1-c1ccc(F)cc1 [Example 16, N-(3-fluoro-4-(1-methyl-6-(1H-pyrazol-4-yl)-1H-indazol-5-yloxy)phenyl)-1-(4-fluorophenyl)-6-isopropoxy-2-oxo-1,2-dihydropyridine-3-carboxamide]
14 | 3.1 nM | CCn1ncc2cc(Oc3ccc(NC(=O)c4ccc(OC(C)C)n(-c5ccc(F)cc5)c4=O)cc3F)c(-c3cn[nH]c3)cc21 [Example 26, N-(3-fluoro-4-(1-ethyl-6-(1H-pyrazol-4-yl)-1H-indazol-5-yloxy)phenyl)-1-(4-fluorophenyl)-6-isopropoxy-2-oxo-1,2-dihydropyridine-3-carboxamide]

Continued, molecule first:

Row | SMILES | IC50
15 | CSc1ccc(C(=O)Nc2ccc(Oc3cc4cnn(C)c4cc3-c3cn[nH]c3)c(F)c2)c(=O)n1-c1ccc(F)cc1 [Example 11, N-(3-fluoro-4-(1-methyl-6-(1H-pyrazol-4-yl)-1H-indazol-5-yloxy)phenyl)-1-(4-fluorophenyl)-6-methylthio-2-oxo-1,2-dihydropyidine-3-carboxamide] | 1.8 nM
16 | Cn1ncc2cc(Oc3ccc(NC(=O)c4ccc(OC5CC5)n(-c5ccc(F)cc5)c4=O)cc3F)c(-c3cn[nH]c3)cc21 [Example 15, N-(3-fluoro-4-(1-methyl-6-(1H-pyrazol-4-yl)-1H-indazol-5-yloxy)phenyl)-1-(4-fluorophenyl)-6-cyclopropoxy-2-oxo-1,2-dihydropyridine-3-carboxamide] | 1.9 nM

Same assay, conditions: Mus musculus, BaF3, Table 9; read-out: Ba/F3 ETV6-NTRK3-G696C cell proliferation inhibitory activity (IC50)

Row | IC50 | SMILES
17 | 3.6 nM | COc1ccc(C(=O)Nc2ccc(Oc3cc4cnn5c4c(c3-c3cn[nH]c3)CC5)c(F)c2)c(=O)n1-c1ccc(F)cc1 [Example 28, N-(4-((5-(1H-pyrazol-4-yl)-6,7-dihydropyrrolo[3,2,1-hi]-indazol-4-yl)oxy)-3-fluorophenyl)-1-(4-fluorophenyl)-6-methoxy-2-oxo-1,2-dihydropyidine-3-carboxamide]
18 | 4.7 nM | CCOc1ccc(C(=O)Nc2ccc(Oc3cc4cnn5c4c(c3-c3cn[nH]c3)CC5)c(F)c2)c(=O)n1-c1ccc(F)cc1 [Example 32, N-(4-((5-(1H-pyrazol-4-yl)-6,7-dihydropyrrolo[3,2,1-hi]-indazol-4-yl)oxy)-3-fluorophenyl)-6-ethoxy-1-(4-fluorophenyl)-2-oxo-12-dihydropyridine-3-carboxamide]
19 | 5.3 nM | Cc1ccc(C(=O)Nc2ccc(Oc3cc4cnn5c4c(c3-c3cn[nH]c3)CC5)c(F)c2)c(=O)n1-c1ccc(F)cc1 [Example 31, N-(4-((5-(1H-pyrazol-4-yl)-6,7-dihydropyrrolo[3,2,1-hi]-indazol-4-yl)oxy)-3-fluorophenyl)-1-(4-fluorophenyl)-6-methyl-2-oxo-1,2-dihydropyridine-3-carboxamide]
20 | 4.8 nM | CC(C)Oc1ccc(C(=O)Nc2ccc(Oc3cc4cnn5c4c(c3-c3cn[nH]c3)CC5)c(F)c2)c(=O)n1-c1ccc(F)cc1 [Example 34, N-(4-((5-(1H-pyrazol-4-yl)-6,7-dihydropyrrolo[3,2,1-hi]-indazol-4-yl)oxy)-3-fluorophenyl)-1-(4-fluorophenyl)-6-isopropoxy-2-oxo-12-dihydropyrndine-3-carboxamide]

Same assay, conditions: Table 7-2; separate test; read-out: Ba/F3 ETV6-NTRK3-G696C, IC50

Row | SMILES | IC50
21 | CCOc1ccc(C(=O)Nc2ccc(Oc3cc4cnn(CC)c4cc3-c3cn[nH]c3)c(F)c2)c(=O)n1-c1ccc(F)cc1 [Example 24, N-(3-fluoro-4-(1-ethyl-6-(1H-pyrazol-4-yl)-1H-indazol-5-yloxy)phenyl)-1-(4-fluorophenyl)-6-ethoxy-2-oxo-12-dihydropyridine-3-carboxamide] | 3.5 nM

Source: patent US11952364B2, “TRK inhibitors useful as anticancer drugs” (TYLIGAND BIOSCIENCE (SHANGHAI) LIMITED, priority 2018, dated 2024)
